According to patent publication US20030194719A1, “Tpst-assay for diagnosis of autism and related disorders” (priority 2000, published 2003):

Tested on: Tyrosyl protein sulphotransferase (TPST)
Assay: TPST activity assay in platelets from normal healthy blood donors (35S transfer from PAPS35 to EAY substrate)
Format: biochemical, human
Conditions: for TPST activity (0 μM = 100): Table 7; for TPST activity (0 μM = 100.0): Table 5
Procedure: The activity of sulphotransferases can be measured by monitoring the transfer of ^35S from the sulphate donor, PAPS^35, to the product, in this case the synthetic tyrosine substrate EAY. This assay uses platelets from control subjects (n=5) and those patients suffering from a particular disorder, selected from autism (n=14), irritable bowel syndrome (n=3) schizophrenia (gluten-sensitive)(n=4), food allergy (gluten, milk) (n=3) and depression (n=2).
Reaction mixtures were incubated for 50 minutes at 37° C. and reactions were stopped by barium acetate. Unreacted sulphate, proteins and nucleotides were precipitated by zinc sulphate and barium hydroxide. Within the reaction there is a positive and negative control. The positive control is termed 100%, and represents the total amount of radioactivity present in the hot PAPS^35 sample. The negative control is the “no-enzyme” reaction, this represents the amount of sulphate transferred to the product when no enzyme is present, i.e. the chemical reaction. The blank for the reaction is made up without PAPS^35 and without enzyme.
10 ml of whole blood was taken from patients and the blood cells removed. The remaining plasma was centrifuged at 8000 g for 5 mins to sediment the platelets. This platelet pellet was resuspended in 5 ml 10 mM phosphate buffered saline (PBS) containing 10 mM EDTA, recentrifuged at 2000 g at 4° C. for 30 min. […] The platelets were sonicated for 12×10 second bursts at 4° C. The platelet sonicates were stored in 1 ml portions at −70° C. prior to use.
Substrate: 10 μl EAY (300 μM; poly (Glu, Ala, Tyr) 6:3:1) was used in each test assay, to give a final concentration in the reaction of 20 μM. This solution was made up in MES reaction buffer.
Reaction mixtures were made up as in the table above. To begin the assay, platelet homogenate (20 μl) and PAPS^35 (20 μl) were added at 30-second intervals to a final volume of 150 μl. The reaction mixture was then incubated at 37° C. for 40 min. The reaction is stopped by the addition of 200 μl-barium acetate (0.1 M) and the tubes were vortexed and placed on ice for […].
Unreacted sulphate was then precipitated by the addition of 0.1 M zinc sulphate (200 μl) and 0.1 M barium hydroxide (200 μl). The tubes were vortexed and centrifuged at 6500 rpm for 3 min.
Repeat step 3. Supernatant (500 μl) was then added to scintillation fluid (3.5 ml) and S^35 was counted in a Phillips scintillation counter.
Various compounds were investigated, including fatty acids, flavonoids and amino acids. […] Compounds were tested at the concentrations shown and were dissolved in buffer where possible or ethanol if not.
In the Example shown in Table 6 and FIG. 6 compounds were all dissolved in DMSO and tested at 25 μM.

[1] = Table 6, 25 μM, dissolved in DMSO, human platelets
[2] = Table 2, 100 μM, normal human platelets
[3] = Example 2, concentrations as in Table 2, normal human platelets

O=c1cc(-c2cc(O)c(O)c(O)c2O)oc2cc(O)ccc12 [2′,3′,4′,5′,7 OH Flavone]
% Control TPST Activity [1]: 38%

O=c1c(O)c(-c2ccccc2)oc2ccccc12 [3 OH Flavone]
% Control TPST Activity [1]: 96% | TPST activity (0 μM = 100) (flavonoid 0.5 μM): 79 | TPST activity (0 μM = 100) (flavonoid 1 μM): 92.6 | TPST activity (0 μM = 100) (flavonoid 2.5 μM): 90.7 | TPST activity (0 μM = 100) (flavonoid 5 μM): 83 | TPST activity (0 μM = 100) (flavonoid 10 μM): 97.9 | TPST activity (0 μM = 100) (flavonoid 25 μM): 101.1 | TPST activity (0 μM = 100) (flavonoid 50 μM): 95.5 | TPST activity (0 μM = 100) (flavonoid 100 μM): 94.4

O=c1cc(-c2ccc(O)c(O)c2)oc2ccccc12 [3′,4′ OH Flavone]
% Control TPST Activity [1]: 55%

O=c1c(-c2ccc(O)c(O)c2)coc2cc(O)ccc12 [3′,4′,7 OH Isoflavone]
% Control TPST Activity [1]: 17%

O=c1cc(-c2cc(O)cc(O)c2)oc2cc(O)ccc12 [3′,5′,7 OH Flavone]
% Control TPST Activity [1]: 32%

O=c1cc(-c2ccccc2)oc2cccc(O)c12 [5 OH Flavone]
% Control TPST Activity [1]: 152%

O=c1cc(-c2ccccc2)oc2cc(O)c(O)c(O)c12 [5′,6′,7′ OH Flavone]
% Control TPST Activity [1]: 1%

Oc1cc(O)c2c(c1)O[C@H](c1ccc(O)c(O)c1)[C@@H](O)C2 [(+)-Catechin]
% Control TPST Activity [1]: 74%

O=c1cc(-c2ccc(O)cc2)oc2cc(O)cc(O)c12 [Apigenin]
% Control TPST Activity [1]: 31%

CCCC(=O)O [Butyric Acid]
% Control TPST Activity [2]: 125% | TPST activity (0 μM = 100.0) (fatty acid 0.5 μM): 137.6 | TPST activity (0 μM = 100.0) (fatty acid 1 μM): 96.8 | TPST activity (0 μM = 100.0) (fatty acid 2.5 μM): 114.3 | TPST activity (0 μM = 100.0) (fatty acid 5 μM): 94.6 | TPST activity (0 μM = 100.0) (fatty acid 10 μM): 99.2 | TPST activity (0 μM = 100.0) (fatty acid 25 μM): 76.1 | TPST activity (0 μM = 100.0) (fatty acid 50 μM): 86.4 | TPST activity (0 μM = 100.0) (fatty acid 100 μM): 62.2

O=C(O)CC(O)(CC(=O)O)C(=O)O [Citrate]
Effect on TPST activity (in words) [3]: increasing activity | % Control TPST Activity [2]: 113%

CC/C=C\C/C=C\C/C=C\C/C=C\C/C=C\C/C=C\CCC(=O)O [DHA, docosahexanoic acid]
TPST activity (0 μM = 100.0) (fatty acid 0.5 μM): 91.8 | TPST activity (0 μM = 100.0) (fatty acid 1 μM): 105.2 | TPST activity (0 μM = 100.0) (fatty acid 2.5 μM): 115.9 | TPST activity (0 μM = 100.0) (fatty acid 5 μM): 109.6 | TPST activity (0 μM = 100.0) (fatty acid 10 μM): 97.0 | TPST activity (0 μM = 100.0) (fatty acid 25 μM): 117.8 | TPST activity (0 μM = 100.0) (fatty acid 50 μM): 119.4 | TPST activity (0 μM = 100.0) (fatty acid 100 μM): 103.3

O=c1c(-c2ccc(O)cc2)coc2cc(O)ccc12 [Daidzein]
Effect on TPST activity (in words) (Example 3, 25 μM, platelets): stimulation of TPST activity | % Control TPST Activity [1]: 279% | TPST activity (0 μM = 100) (flavonoid 2.5 μM): 100.2 | TPST activity (0 μM = 100) (flavonoid 5 μM): 107.5 | TPST activity (0 μM = 100) (flavonoid 10 μM): 181.1 | TPST activity (0 μM = 100) (flavonoid 25 μM): 343.2 | TPST activity (0 μM = 100) (flavonoid 50 μM): 303.1

O=c1cc(-c2ccccc2)oc2ccccc12 [Flavone]
Effect on TPST activity (in words) (Example 3, 25 μM, platelets): stimulation of TPST activity | % Control TPST Activity [1]: 180% | TPST activity (0 μM = 100) (flavonoid 0.5 μM): 80.3 | TPST activity (0 μM = 100) (flavonoid 1 μM): 96.4 | TPST activity (0 μM = 100) (flavonoid 2.5 μM): 93.5 | TPST activity (0 μM = 100) (flavonoid 5 μM): 102.3 | TPST activity (0 μM = 100) (flavonoid 10 μM): 126 | TPST activity (0 μM = 100) (flavonoid 25 μM): 172.8 | TPST activity (0 μM = 100) (flavonoid 50 μM): 230.2 | TPST activity (0 μM = 100) (flavonoid 100 μM): 307.3

CCCCC/C=C\C/C=C\C/C=C\CCCCC(=O)O [GLA, gamma linolenic acid]
TPST activity (0 μM = 100.0) (fatty acid 10 μM): 78.8 | TPST activity (0 μM = 100.0) (fatty acid 25 μM): 72.6 | TPST activity (0 μM = 100.0) (fatty acid 50 μM): 71.3 | TPST activity (0 μM = 100.0) (fatty acid 100 μM): 61.2

O=c1c(-c2ccc(O)cc2)coc2cc(O)cc(O)c12 [Genistein]
Effect on TPST activity (in words) (Example 2, 100 μM): inhibitory effect on TPST activity | Effect on TPST activity (in words) (Example 3, 25 μM, platelets): stimulation of TPST activity | Effect on TPST activity (in words) (Example 3, 25 μM, platelets, listed as genistein): TPST enhancing effect | % Control TPST Activity [2]: 74% | % Control TPST Activity [1]: 117% | TPST activity (0 μM = 100) (flavonoid 2.5 μM): 86.5 | TPST activity (0 μM = 100) (flavonoid 5 μM): 83.4 | TPST activity (0 μM = 100) (flavonoid 10 μM): 75.8 | TPST activity (0 μM = 100) (flavonoid 25 μM): 50.9 | TPST activity (0 μM = 100) (flavonoid 50 μM): 62

N[C@@H](CCC(=O)O)C(=O)O [Glutamate]
Effect on TPST activity (in words) [3]: decreased activity | % Control TPST Activity [2]: 67%

NC(=O)CC[C@H](N)C(=O)O [Glutamine]
Effect on TPST activity (in words) [3]: increased activity | % Control TPST Activity [2]: 125%

O=c1c(O)c(-c2ccc(O)cc2)oc2cc(O)cc(O)c12 [Kaempferol]
TPST activity (0 μM = 100) (flavonoid 0.5 μM): 45.2 | TPST activity (0 μM = 100) (flavonoid 1 μM): 39.9 | TPST activity (0 μM = 100) (flavonoid 2.5 μM): 22.3 | TPST activity (0 μM = 100) (flavonoid 5 μM): 21.4 | TPST activity (0 μM = 100) (flavonoid 10 μM): 14.4 | TPST activity (0 μM = 100) (flavonoid 25 μM): 11 | TPST activity (0 μM = 100) (flavonoid 50 μM): 7.3 | TPST activity (0 μM = 100) (flavonoid 100 μM): 2.9

CCCCC/C=C\C/C=C\CCCCCCCC(=O)O [Linoleic Acid]
% Control TPST Activity [2]: 113%

CCCCCCCC/C=C\CCCCCCCC(=O)O [Oleic Acid]
Effect on TPST activity (in words) [3]: slight stimulation of TPST activity | % Control TPST Activity [2]: 111% | TPST activity (0 μM = 100.0) (fatty acid 0.5 μM): 74.5 | TPST activity (0 μM = 100.0) (fatty acid 1 μM): 61.5 | TPST activity (0 μM = 100.0) (fatty acid 2.5 μM): 69.2 | TPST activity (0 μM = 100.0) (fatty acid 5 μM): 51.4 | TPST activity (0 μM = 100.0) (fatty acid 10 μM): 60.5 | TPST activity (0 μM = 100.0) (fatty acid 25 μM): 56.2 | TPST activity (0 μM = 100.0) (fatty acid 50 μM): 54.3 | TPST activity (0 μM = 100.0) (fatty acid 100 μM): 29.5

CCCCC[C@H](O)/C=C/[C@H]1[C@H](O)CC(=O)[C@@H]1C/C=C\CCCC(=O)O [PGE2, prostaglandin E2]
Effect on TPST activity (in words) [3]: stimulation of activity | % Control TPST Activity [2]: 124%

CCCCCC/C=C\CCCCCCCC(=O)O [Palmitoleic]
TPST activity (0 μM = 100.0) (fatty acid 10 μM): 99.5 | TPST activity (0 μM = 100.0) (fatty acid 25 μM): 95.2 | TPST activity (0 μM = 100.0) (fatty acid 50 μM): 93.5 | TPST activity (0 μM = 100.0) (fatty acid 100 μM): 81.4

N[C@@H](Cc1ccccc1)C(=O)O [Phenylalanine]
Effect on TPST activity (in words) [3]: decreased TPST activity in a dose dependent fashion | % Control TPST Activity (Table 2, 50 μM, normal human platelets): 79% | % Control TPST Activity (Table 2, 1000 μM, normal human platelets): 40%
